Measurements from PubChem BioAssay (NCI).
Where “and” joins values, the source holds several entries; their conditions need not be identical. Identical values can stand only once.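 Briefly, cells in 96-well plates were exposed to five compound concentrations for 48 h, and endpoints were estimated by linear interpolation. GI50 is the concentration that inhibits growth by half. TGI marks complete inhibition of growth.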 Where a SMILES comes first, the peptide text is derived from it. The star is where a group is joined. Boc = CC(C)(C)OC(=O)*

Key:
Test in all cases: inhibition of tumour cell growth, NCI panel, 48 h
[1] = system: EKVX NSCLC
[2] = system: K-562 leukemia
[3] = system: HS 578T breast
[4] = system: UACC-62 melanoma
[5] = system: HCC-2998 colon
[6] = system: RPMI-8226 leukemia
[7] = system: SF-268 CNS
[8] = system: NCI-H522 lung
[9] = system: HL-60(TB) leukemia

In the case of Nc1ccc2c(=O)cc(-c3ccc(Br)s3)[nH]c2n1, the TGI [1] is reported as > 100 µM, the TGI [2] is reported as > 100 µM and the TGI [3] is reported as > 100 µM. For the same compound, the TGI [4] was > 100 µM, the TGI [5] was 29.7 µM and the TGI [6] was > 100 µM. The TGI [7] was > 100 µM and the TGI [8] was > 23.1 µM.

With CCOC(=O)C1CCC(=O)N1C(=O)c1cccc(Cl)c1 (stereo not drawn) the TGI [1] was > 100 µM, the TGI [2] was > 100 µM and the TGI [3] was > 100 µM. The TGI [4] was 62.4 µM, the TGI [6] was > 100 µM and the TGI [7] was > 100 µM. For the same compound, the TGI [9] was > 100 µM and the TGI [8] was > 100 µM.

For O=c1[nH]nc(-c2ccccc2)c2[nH]c3c(c12)Cc1ccccc1-3, the TGI [1] was > 100 µM, the TGI [2] was > 100 µM and the TGI [3] was > 100 µM. The TGI [4] was 2.69 µM, the TGI [5] was > 100 µM and the TGI [6] was > 28.4 µM. The TGI [7] was > 100 µM and the TGI [9] was 7.48 µM.

In the case of Cc1ccc(S(=O)(=O)OCCC2CN(C(=O)OCc3ccccc3)C(C)(C)O2)cc1 (stereo not drawn), the TGI [1] is reported as > 100 µM, the TGI [2] is reported as > 100 µM and the TGI [4] is reported as > 100 µM. For the same compound, the TGI [5] was 72.7 µM, the TGI [6] was 32.4 µM and the TGI [9] was 30 µM. The TGI [8] was 20.1 µM.

CCOC(=O)c1cc2c3c(c(C(C)=O)c(OC)c2[nH]1)N(C(=O)CC)CC3 was tested, and the TGI [1] was 30.6 µM, the TGI [2] was 50.5 µM and the TGI [3] was 57.9 µM. It also gave a TGI [4] of 34.4 µM, a TGI [5] of 76.5 µM and a TGI [6] of 26.2 µM. It also gave a TGI [7] of 36.6 µM and a TGI [9] of 46.7 µM.

With Cc1nc2ccc(Br)cc2c(=O)n1-c1ccc(N)cc1 the TGI [1] was > 100 µM, the TGI [2] was > 100 µM and the TGI [3] was > 100 µM. For the same compound, the TGI [4] was > 100 µM, the TGI [5] was > 100 µM and the TGI [7] was > 100 µM. The TGI [9] was > 100 µM.

With O=C1c2ccncc2C(=O)c2c(O)ccc(O)c21 the TGI [1] was 32.1 µM, the TGI [2] was 55.5 µM and the TGI [4] was 10.6 µM. It also gave a TGI [5] of 16.3 µM, a TGI [6] of 30.4 µM and a TGI [7] of 24.2 µM. It also gave a TGI [9] of 5.41 µM.

In the case of O=C1C=CC(=O)c2c(O)c(N3CCOCC3)c(Cl)c(O)c21, the TGI [1] is reported as 2.79 µM, the TGI [2] is reported as > 10 µM and the TGI [3] is reported as 1.7 µM. For the same compound, the TGI [4] was 1.41 µM, the TGI [5] was 3.16 µM and the TGI [6] was > 10 µM. The TGI [7] was 3.19 µM and the TGI [8] was 0.83 µM.

With C=CC(C)(C)/C=C/c1ccc(O)cc1 the TGI [1] was > 100 µM, the TGI [3] was > 100 µM and the TGI [4] was > 100 µM. The TGI [5] was 79.9 µM, the TGI [6] was 70.1 µM and the TGI [7] was > 100 µM. The TGI [9] was > 100 µM and the TGI [8] was > 100 µM.

COc1cccc2c1OC1c3ccccc3OCC1(O)C2 (stereo not drawn) was tested, and the TGI [1] was > 100 µM, the TGI [2] was > 100 µM and the TGI [4] was > 100 µM. The TGI [5] was > 100 µM, the TGI [6] was > 100 µM and the TGI [7] was > 100 µM. For the same compound, the TGI [8] was > 100 µM.

For Oc1c(Cl)cc2cc1-c1cc(cc(Cl)c1O)CCc1c(cc(Cl)c(O)c1Cl)-c1cc(Cl)c(c(Cl)c1O)/C=C\2, the TGI [2] was > 50 µM, the TGI [3] was 33.7 µM and the TGI [4] was 18 µM. The TGI [5] was 13.9 µM, the TGI [6] was > 50 µM and the TGI [7] was 23.6 µM. For the same compound, the TGI [9] was > 50 µM.

O=C1C(N2CCN(CCOCCO)CC2)=C(Cl)C(=O)c2ncccc21 was tested, and the TGI [1] was 35.1 µM, the GI50 [2] was 13.3 µM and the TGI [2] was 34.4 µM. The TGI [4] was 43.8 µM, the GI50 [5] was > 100 µM and the TGI [5] was > 100 µM. The TGI [6] was 47.8 µM, the TGI [7] was 44.5 µM and the GI50 [9] was 2.24 µM. For the same compound, the TGI [9] was 8.29 µM and 5.91 µM, the GI50 [8] was 17.7 µM and the TGI [8] was 4.22 µM and 32.6 µM.

With CCOc1ccc2nc3nc(=O)[nH]c(C)c3c(NC(C)(CO)CO)c2c1 the TGI [1] was > 100 µM, the TGI [2] was > 100 µM and the TGI [3] was > 100 µM. The TGI [4] was > 100 µM, the TGI [5] was > 100 µM and the TGI [7] was > 100 µM. For the same compound, the TGI [9] was > 100 µM and the TGI [8] was > 100 µM.

O=Nc1c(-c2c(O)[nH]c3ccc(I)cc23)[nH]c2ccccc12 was tested, and the TGI [1] was > 69.7 µM, the TGI [3] was > 29.8 µM and the TGI [4] was 4.45 µM. The TGI [6] was 4.67 µM, the TGI [7] was 25.9 µM and the TGI [9] was 6.96 µM. For the same compound, the TGI [8] was > 26.1 µM.

For O=C1C=C(N2CCN(c3ncccn3)CC2)C(=O)c2c(O)ccc(O)c21, the TGI [1] was > 100 µM, the TGI [2] was > 100 µM and the TGI [3] was > 100 µM. For the same compound, the TGI [4] was > 100 µM, the TGI [5] was > 100 µM and the TGI [7] was > 100 µM. For the same compound, the TGI [9] was > 100 µM and the TGI [8] was > 100 µM.

With COc1ccc(/C=c2\[nH]c3nc(=O)c(N4CCCCC4)c(N)n3c2=O)cc1 the TGI [1] was > 100 µM, the TGI [2] was > 100 µM and the TGI [3] was > 100 µM. For the same compound, the TGI [5] was > 100 µM, the TGI [6] was > 100 µM and the TGI [7] was > 100 µM. For the same compound, the TGI [9] was > 100 µM and the TGI [8] was > 100 µM.

Cc1cc2c(c(C(=O)NCC(=O)O)c1)Oc1c(cc(C)cc1C(=O)NCC(=O)O)S2 was tested, and the TGI [1] was > 100 µM, the TGI [2] was > 100 µM and the TGI [3] was > 100 µM. The TGI [4] was > 100 µM, the TGI [5] was > 100 µM and the TGI [6] was > 100 µM. The TGI [7] was > 100 µM and the TGI [8] was > 100 µM.

In the case of COC(=O)[C@@H](NS(=O)(=O)CC12CCC(CC1)C2(C)C)C(C)(C)C, the TGI [1] is reported as > 100 µM, the TGI [2] is reported as > 100 µM and the TGI [3] is reported as > 100 µM. For the same compound, the TGI [4] was > 100 µM, the TGI [5] was > 100 µM and the TGI [7] was > 100 µM. The TGI [9] was > 100 µM and the TGI [8] was > 100 µM.

In the case of Cn1c2ccccc2n2c3ncccc3c(=O)cc12, the TGI [1] is reported as > 100 µM, the TGI [2] is reported as > 100 µM and the TGI [6] is reported as > 100 µM. The TGI [7] was > 100 µM and the TGI [8] was > 100 µM.

For COC(=O)C(Cc1c[nH]c2ccccc12)NC(=O)C(Cc1c[nH]c2ccccc12)NC(=O)C(Cc1c[nH]c2ccccc12)NC(=O)C(Cc1c[nH]c2ccccc12)NC(=O)C(Cc1c[nH]c2ccccc12)NC(=O)C(Cc1c[nH]c2ccccc12)NC(=O)C(Cc1c[nH]c2ccccc12)NC(=O)OC(C)(C)C (stereo not drawn) (Boc-WWWWWWW-OMe; configuration not given here), the TGI [2] was > 100 µM, the TGI [4] was > 100 µM and the TGI [5] was > 100 µM. For the same compound, the TGI [6] was > 100 µM, the TGI [7] was > 100 µM and the TGI [9] was > 100 µM. For the same compound, the TGI [8] was > 100 µM.

COC(=O)/C=C\n1nc(Br)c(=O)[nH]c1=O was tested, and the TGI [1] was > 100 µM, the TGI [2] was > 100 µM and the TGI [3] was > 100 µM. The TGI [5] was > 100 µM, the TGI [6] was > 100 µM and the TGI [7] was > 100 µM. For the same compound, the TGI [9] was > 100 µM and the TGI [8] was > 100 µM.

For COC(=O)C1C(=O)CC(C)(O)C(C(=O)OC)C1c1ccc(N(C)C)cc1 (stereo not drawn), the TGI [1] was > 100 µM, the TGI [2] was > 100 µM and the TGI [4] was > 100 µM. The TGI [5] was > 100 µM, the TGI [7] was > 100 µM and the TGI [9] was > 100 µM. For the same compound, the TGI [8] was > 100 µM.

With CC(c1ccccc1)n1cncc1C(=O)NN1CCN(C)CC1 (stereo not drawn) the TGI [1] was > 10 µM, the TGI [2] was > 10 µM and the TGI [3] was > 10 µM. For the same compound, the TGI [4] was > 10 µM, the TGI [6] was > 10 µM and the TGI [7] was > 10 µM. The TGI [9] was > 10 µM and the TGI [8] was > 10 µM.

[N-]=[N+]=Nc1nc2ccccc2c(N=[N+]=[N-])c1Cl was tested, and the TGI [2] was > 100 µM, the TGI [3] was > 100 µM and the TGI [4] was > 100 µM. The TGI [5] was > 100 µM, the TGI [6] was > 100 µM and the TGI [7] was > 100 µM. For the same compound, the TGI [9] was > 100 µM.

CC/C=C/c1cc2c(cc1O)CCC1C2CC[C@@]2(C)C1CC[C@@H]2O (stereo partly drawn) was tested, and the TGI [1] was 14.3 µM, the TGI [2] was 7.66 µM and the TGI [3] was 6.11 µM. The GI50 [4] was 0.485 µM, the TGI [4] was 7.91 µM and the TGI [5] was 33.2 µM. For the same compound, the TGI [6] was 6.46 µM, the TGI [7] was 24.8 µM and the TGI [8] was 14.1 µM.
